# According to paper PMC8320107 (ACS Omega, 2021):
# Read-outs that look alike come from different tables or passages of the source.
# Target: AChE (Homo sapiens, UniProt P22303)
# Test: In vitro AChE inhibitory activity, Ellman's colorimetric method
# Type: biochemical
# Conditions: for relative potency (%): AChE inhibitory potency relative to donepezil hydrochloride (100)
# [1] = in vitro AChE inhibition, mean ± standard error of the mean of three experiments
# Sequence of AChE (P22303 32-614): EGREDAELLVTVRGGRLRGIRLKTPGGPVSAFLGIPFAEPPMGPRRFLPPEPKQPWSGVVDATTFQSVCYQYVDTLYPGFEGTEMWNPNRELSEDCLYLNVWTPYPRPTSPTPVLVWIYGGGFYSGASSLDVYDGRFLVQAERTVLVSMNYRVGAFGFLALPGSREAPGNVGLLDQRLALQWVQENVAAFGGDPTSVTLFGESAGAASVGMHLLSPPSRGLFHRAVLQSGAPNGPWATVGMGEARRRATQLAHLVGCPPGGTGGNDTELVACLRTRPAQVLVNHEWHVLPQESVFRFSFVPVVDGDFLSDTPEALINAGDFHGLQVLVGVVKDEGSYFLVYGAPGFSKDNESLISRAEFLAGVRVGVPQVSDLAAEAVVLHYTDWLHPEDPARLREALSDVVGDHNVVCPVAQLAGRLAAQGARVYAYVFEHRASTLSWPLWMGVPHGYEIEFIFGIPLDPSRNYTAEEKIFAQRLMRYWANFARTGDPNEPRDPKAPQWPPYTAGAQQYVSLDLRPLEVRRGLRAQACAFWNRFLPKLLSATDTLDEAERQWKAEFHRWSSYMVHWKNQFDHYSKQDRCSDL
Compound,IC50 [1],relative potency (%),IC50
"Cc1ccc(C=C2SC(Nc3nc(-c4ccc(C)cc4)cs3)=NC2=O)cc1 [Compound 8, 2-[4-(p-Tolylthiazol-2-yl)amino]-5-(4-methylbenzylidene)-4,5-dihydrothiazole-4-one]",501 ± 14 nM,–,–
"Cc1ccc(-c2csc(NC3=NC(=O)C(=Cc4ccc(Cl)cc4Cl)S3)n2)cc1 [Compound 12, 2-[4-(p-Tolylthiazol-2-yl)amino]-5-(2,4-dichlorobenzylidene)-4,5-dihydrothiazole-4-one]",336 ± 9.1 nM,–,–
"Cc1ccc(-c2csc(NC3=NC(=O)C(=Cc4ccc(Br)s4)S3)n2)cc1 [Compound 14, 2-[4-(p-Tolylthiazol-2-yl)amino]-5-[(5-bromothiophen-2-yl)methylene]-4,5-dihydrothiazole-4-one]",380 ± 10 nM,–,–
"COc1ccc(-c2csc(NC3=NC(=O)C(=Cc4ccc(C)cc4)S3)n2)cc1 [Compound 15, 2-[4-(4-Methoxyphenylthiazol-2-yl)amino]-5-(4-methylbenzylidene)-4,5-dihydrothiazole-4-one]",375 ± 10 nM,–,–
"COc1ccc(-c2csc(NC3=NC(=O)C(=Cc4ccc(OC)c(OC)c4)S3)n2)cc1 [Compound 17, 2-[4-(4-Methoxyphenylthiazol-2-yl)amino]-5-(3,4-dimethoxybenzylidene)-4,5-dihydrothiazole-4-one]",176 ± 4.8 nM,31.26%,–
"COc1ccc(-c2csc(NC3=NC(=O)C(=Cc4ccc(Cl)cc4)S3)n2)cc1 [Compound 18, 2-[4-(4-Methoxyphenylthiazol-2-yl)amino]-5-(4-chlorobenzylidene)-4,5-dihydrothiazole-4-one]",193 ± 5.3 nM,28.43%,–
"COc1ccc(-c2csc(NC3=NC(=O)C(=Cc4ccc(Cl)cc4Cl)S3)n2)cc1 [Compound 19, 2-[4-(4-Methoxyphenylthiazol-2-yl)amino]-5-(2,4-dichlorobenzylidene)-4,5-dihydrothiazole-4-one]",731 ± 20 nM,–,–
"COc1ccc(-c2csc(NC3=NC(=O)C(=Cc4cccs4)S3)n2)cc1 [Compound 20, 2-[4-(4-Methoxyphenylthiazol-2-yl)amino]-5-[(thiophen-2-yl)methylene]-4,5-dihydrothiazole-4-one]",260 ± 7.1 nM,–,–
"COc1ccc(-c2csc(NC3=NC(=O)C(=Cc4ccc(Br)s4)S3)n2)cc1 [Compound 21, 2-[4-(4-Methoxyphenylthiazol-2-yl)amino]-5-[(5-bromothiophen-2-yl)methylene]-4,5-dihydrothiazole-4-one]",188 ± 5.1 nM,29.28%,–
"CCN=C1SCC(=O)N1c1nc(-c2ccc(C)cc2)cs1 [Compound 28, 2-Ethylimino-3-[4-(p-tolyl)thiazol-2-yl]thiazolidin-4-one]",–,–,478 ± 13 nM
"Cc1ccc(-c2csc(N3C(=O)CSC3=NCc3ccccc3)n2)cc1 [Compound 29, 2-Benzylimino-3-[4-(p-tolyl)thiazol-2-yl]thiazolidin-4-one]",–,–,188 ± 5.1 nM
"CCN=C1SCC(=O)N1c1nc(-c2ccc(OC)cc2)cs1 [Compound 30, 2-Ethylimino-3-[4-(4-methoxyphenyl)thiazol-2-yl]thiazolidin-4-one]",–,–,346 ± 9.4 nM
"COc1ccc(-c2csc(N3C(=O)CSC3=NCc3ccccc3)n2)cc1 [Compound 31, 2-Benzylimino-3-[4-(4-methoxyphenyl)thiazol-2-yl]thiazolidin-4-one]",–,36.08%,152 ± 4.1 nM
"COc1ccc(-c2csc(N3C(=O)C(=Cc4ccc(OC)c(OC)c4)SC3=NCc3ccccc3)n2)cc1 [Compound 32, 2-(Benzylimino)-5-(3,4-dimethoxybenzylidene)-3-[4-(4-methoxyphenyl)thiazol-2-yl]thiazolidin-4-one]",–,–,450 ± 12 nM
"COc1ccc(-c2csc(N3C(=O)C(=Cc4ccc(Cl)cc4Cl)SC3=NCc3ccccc3)n2)cc1 [Compound 33, 2-(Benzylimino)-5-(2,4-dichlorobenzylidene)-3-[4-(4-methoxyphenyl)thiazol-2-yl]thiazolidin-4-one]",–,29.27%,188 ± 5.1 nM
